From PMC7520419 (The AAPS Journal, 2020)
Values after ≈ are worked out from the molar mass of the structure shown. Like-named read-outs stand apart in the source and are kept apart here.

Legend:
[1] = system: Caco-2; details: cited from earlier work
[2] = design: method as in Table I reference column; details: not generated within this working group; ref Table I; cited from earlier work
[3] = BCS classification; format: physicochemical
[4] = PBPK food effect modeling (Simcyp V17.1 and/or GastroPlus V9.5; Model 1 / Model 2); design: species or system human
[5] = not generated within this working group; ref Table I; cited from earlier work
[6] = pKa; details: pKa (a, acidic)
[7] = design: Food Effect (graded symbols): key to the marks not given beside the values; details: cited from earlier work
[8] = physchem; details: 37 °C, thermodynamic from solid
Protocol: (§1) The solubility of the drug substances was determined in biorelevant media as well as in aqueous buffers at different pH. Fasted state simulated gastric fluid (FaSSGF) ([37]), fasted state simulated intestinal fluid (FaSSIF-V2) ([38]), and fed state simulated intestinal fluid (FeSSIF-V2) ([39]) were prepared according to the instructions provided by Biorelevant (Biorelevant.com Ltd., London, UK). […] For neutral compounds, solubility was determined at pH 2, pH 4, and pH 7.
(§2) For freely soluble compounds, the extent of solubilization was measured only up to 10 mg/mL.

[9] = physchem; details: pH 6.5, aqueous buffer, thermodynamic from solid
Protocol: as §1, §2

[10] = Effective human jejunum permeability (Peff,man) used in the PBPK model; format: in vitro ADME; details: human, 1 h
Protocol: Permeation rates of the compounds, including reference compounds, were measured in the apical-to-basolateral (AB) direction. The donor and receiver wells were sampled immediately after application of the compound to the donor well to determine baseline concentrations, and again after 1 h. Quantification was done using high-performance liquid chromatography combined with mass spectrometry (HPLC-MS/MS) analysis and monolayer integrity was verified by analyzing the receiver samples for LuY fluorescence in a plate reader.

[11] = Solubility measurement in biorelevant media (FaSSIF-V2, FeSSIF-V2); details: 37 °C, thermodynamic from solid
Protocol: as §1, §2

[12] = Solubility measurement in aqueous buffer solutions; details: pH 6.5, aqueous buffer, thermodynamic from solid
Protocol: as §1, §2

[13] = not generated within this working group, ref Table I
[14] = Model 1, fasted, ref published clinical data (Table I)
[15] = Model 1, fed, ref published clinical data (Table I)
[16] = Model 1, ref published clinical data (Table I)
[17] = clinically observed PK change (AUC, Cmax) fed vs fasted, compiled by literature search
[18] = direction, AUC and/or Cmax ratio fed to fasted, BE criteria 0.8–1.25, ref drug label
[19] = Model 2, fasted, ref published clinical data (Table I)
[20] = Model 2, fed, ref published clinical data (Table I)
[21] = Model 2, ref published clinical data (Table I)

| Structure (SMILES) | Apparent permeability (Caco-2) [1, 13] | BCS [3] | AUC Ratio of Ratios (Sim'd / Obs'd) ([4]; Model 1) | Cmax Ratio of Ratios (Sim'd / Obs'd) ([4]; Model 1) | Observed AUC(0-inf) Fasted [7, 14] [µg·h/mL] | Observed Cmax Fasted [7, 14] [ng/mL] | Observed AUC(0-inf) Fed [7, 15] [µg·h/mL] | Observed Cmax Fed [7, 15] [ng/mL] | Observed AUC Ratios (Fed/Fasted) [7, 16] | Observed Cmax Ratios (Fed/Fasted) [7, 16] | Food Effect [7, 17] | Food Effect [7, 18] | AUC Ratio of Ratios (Sim'd / Obs'd) ([4]; Model 2) | Cmax Ratio of Ratios (Sim'd / Obs'd) ([4]; Model 2) | other results |
| --- | --- | --- | --- | --- | --- | --- | --- | --- | --- | --- | --- | --- | --- | --- | --- |
| CC(C)(C)c1cc(C(C)(C)C)c(NC(=O)c2c[nH]c3ccccc3c2=O)cc1O [Ivacaftor] | 11.9 (Caco-2)^^ × 10^−6 cm/s | II/IV | 1.03 | 1.15 | 3.12 | 148 | 9.59 | 637 | 3.07 | 4.30 | Positive (positive if the ratio of fed > fasted) | Positive (positive if the ratio of fed > fasted) |  |  | FaSSIF solubility [2]: 53^^ μg/ml; FeSSIF solubility [2]: 550^^ μg/ml; Solubility at pH 6.5 [5]: 0.5^^ μg/ml; pKa [6]: 9.4 |
| CCC[C@H](NC(=O)[C@@H]1[C@H]2CCC[C@H]2CN1C(=O)[C@@H](NC(=O)[C@@H](NC(=O)c1cnccn1)C1CCCCC1)C(C)(C)C)C(=O)C(=O)NC1CC1 [Telaprevir] |  |  | 0.42 | 0.26 |  |  |  |  |  |  |  |  | 0.66 | 0.44 | Apparent permeability (Caco-2) ([1]; Caco-2): 4.4 (Caco-2)^^ × 10^−6 cm/s; solubility ([8]; FaSSIF solubility): 120 µg/mL (≈ 177 µM); solubility ([8]; FeSSIF solubility): 80 µg/mL (≈ 118 µM); solubility [9]: 85 µg/mL (≈ 125 µM); Effective permeability [10]: 0.00014 cm/s; Food Effect (graded symbols) ([7]; human, in vivo): +++; Observed AUC Ratios (Fed/Fasted) ([7]; human, in vivo): 3.71; Observed AUC(0-inf) Fasted ([7]; human, in vivo): 3.58 µg·h/mL; Observed AUC(0-inf) Fed ([7]; human, in vivo): 13.3 µg·h/mL; Observed Cmax Fasted ([7]; human, in vivo): 349 ng/mL; Observed Cmax Fed ([7]; human, in vivo): 2080 ng/mL; Observed Cmax Ratios (Fed/Fasted) ([7]; human, in vivo): 5.96 |
| Cc1ccc(Nc2nccc(N(C)c3ccc4c(C)n(C)nc4c3)n2)cc1S(N)(=O)=O [Pazopanib] | 16.9 (Caco-2)^^ × 10^−6 cm/s | II/IV | 0.13 | 0.12 | 824 | 20700 | 2020 | 45200 | 2.45 | 2.19 | Positive (positive if the ratio of fed > fasted) | Positive (positive if the ratio of fed > fasted) | 0.24 | 0.44 | solubility ([11]; FaSSIF-V2 (fasted state simulated intestinal fluid), FaSSIF solubility): 1.2 µg/mL (≈ 2.74 µM); solubility ([11]; FeSSIF-V2 (fed state simulated intestinal fluid), FeSSIF solubility): 2.8 µg/mL (≈ 6.4 µM); solubility [12]: 0.5 µg/mL (≈ 1.14 µM); fasted bioavailability ([7]; 800 mg dose): ~ 21%; fasted bioavailability, range ([7]; 800 mg dose): 14–39%; increase in AUC0-72h with a high-fat meal ([7]; 800 mg dose): 2.3 fold; increase in Cmax with a high-fat meal ([7]; 800 mg dose): 2.1 fold; increase in AUC0-72h with a high-fat meal ([7]; 800 mg dose, listed as pazopanib): approximately 2.3 fold; Observed AUC(0-inf) Fasted [7, 19]: 824 µg·h/mL; Observed Cmax Fasted [7, 19]: 20700 ng/mL; Observed AUC(0-inf) Fed [7, 20]: 2020 µg·h/mL; Observed Cmax Fed [7, 20]: 45200 ng/mL; Observed AUC Ratios (Fed/Fasted) [7, 21]: 2.45; Observed Cmax Ratios (Fed/Fasted) [7, 21]: 2.19 |
